Laboratory results taken from US20250345350A1, “TREATING PAIN ASSOCIATED WITH CENTRAL SENSITIZATION” (Medicon Pharmaceuticals, Inc., priority 2022, published 2025).
Like-named read-outs stand apart in the source and are kept apart here.

Legend:
[1] = system: STZ-induced central sensitization in Sprague-Dawley rats; test: PWT (von Frey), streptozotocin rat model of central sensitization (Example 4); assay type: in vivo; details: week 7; PS 8% hydrogel to both hind paws 3 times a day for 3 weeks from week 4 after STZ
Experimental: Sprague-Dawley rats were fasted for 4-6 hours before being injected intraperitoneally with 45 mg/kg STZ. This was performed for all experimental groups, except the naive group. In order to prevent hypoglycaemic death, rats received 10% sucrose water as the sole water source for the first 48 hours after injection. In order to ensure only those rats considered diabetic (i.e., having non-fasting plasma glucose levels of >250 mg/dL) were included in the study, blood glucose was measured at 72 hours after the STZ injection.
Four weeks after STZ injection, the rats were randomised into treatment groups. This delay between STZ injection and treatment allows the establishment of chronic pain (allodynia) associated with central sensitization. […] 5% lidocaine cream (positive control) was applied only once to both hind paws of the rats 30 minutes before measurement of PWT.
The rats were split into 8 study groups, with those in the experimental groups (1-4) having an average body weight of about 225 g, and those in the control groups (5-8) having an average body weight of about 335 g, as follows: • 1. Group 1: naive rats (n=5) • 2. Group 2: STZ only (n=6) • 3. Group 3: STZ plus vehicle (n=6) • 4. […] Group 5: STZ plus oral vehicle (n=8) • 6. Group 6: STZ plus 0.7% sulindac hydrogel (n=7) • 7. Group 7: STZ plus 5% lidocaine cream (n=8) • 8.

[2] = system: PHN induced by HSV-1 KOS strain virus in BALB/c mice; test: PWT (von Frey), HSV-1 mouse model of PHN, topical (Example 20); assay type: in vivo
Experimental: PHN was induced in mice by infecting them with the HSV-1 KOS strain virus and following established protocols (Ou et al, Front Immunol, 14, 1026269, 2023; Takasaki et al, Anesthesiology, 96(5), 1168-74, 2002).
; Reckitt Benckiser). Three days later, HSV-1 (10^6 PFUs in 20 μl PBS) was inoculated on the shin of the right hind paw (5×5 mm) after scarification with sandpaper. The virus was applied directly to the scarified area. The contralateral hind paw was without inoculation. Mock infection was performed using the same virus inactivated by heating at 60° C. for 1 h.
. Group 1: sham inoculated (n=5-7) • 2.
In a second experiment, the effect of the parent compound, sulindac, was tested in the same mouse model. Five days post-inoculation, sulindac (as a 5% gel), or vehicle control were administered topically onto both hind paws of mice three times a day for three days.
. Group 1: vehicle control (n=5-7) • 2. Group 2: sulindac 5% (n=5-7)

[3] = Pharmacokinetics and biodistribution after topical PS 8% ointment to hind paws (Example 25); assay type: in vivo, mouse; details: normal mice, topical PS 8% ointment to hind paws; for AUC(0-t) / Cmax / half-life: mouse, in vivo, topical or ocular, 50 μl per paw of PS 8% ointment; for AUC(0-t): read-out: AUC0-24 h; for Cmax: read-out: Cmax, mean ± SEM
Experimental: At 0.5, 1, 3, 5, 12, 18, and 24 h, mice (n=4-5 mice/time point) were euthanized with CO2 inhalation. Blood was drawn immediately after death. Tissues, including paw skin, paw muscle, leg muscle, the sciatic nerve and lumbar DRG bilaterally were dissected quickly, immediately frozen in liquid nitrogen and stored at −80° C. until analyzed.

[4] = PS and metabolites in proximal and distal half of the sciatic nerve (Example 25); assay type: in vivo, mouse; details: mice with paclitaxel-induced PN, PS 8% ointment 3x/d for 2 wks, 30 min after last dose; for concentration at 30 min: mouse, in vivo, 8 % PS ointment, 3×/d
Experimental: In a separate experiment we studied 8 mice with paclitaxel-induced PN treated with PS 8% ointment 3×/d for 2 wks. Mice were euthanized as above 30 minutes after the last dose of PS. From these mice we harvested both sciatic nerves dividing each into proximal and distal halves, and combined the corresponding halves of every two animals for assay of drug levels.

[5] = Pharmacokinetics and biodistribution after 3% PS gel on outer surface of eyelid (Example 26); assay type: in vivo, rabbit; details: male, New Zealand White, rabbit, rabbits, 3% PS gel on outer surface of upper eyelids; for Cmax / half-life / AUC(0-t): topical or ocular; for AUC(0-t): read-out: AUC0-24 h; for concentration at 0.5 h / concentration at 1 h / concentration at 2 h / concentration at 4 h / concentration at 8 h / concentration at 24 h: topical, read-out: Amount in tissue, Mean ± SEM
Experimental: The pharmacokinetics and biodistribution of 3% PS gel applied to the outer surface of both upper eyelids was studies in male New Zealand White rabbits.
Eyelid and tissues of the globe were dissected and frozen quickly in liquid nitrogen until the levels of PS and its metabolites were determined by HPLC as described Xie et al. (Br J Pharmacol (2012);165:2152-66).

[6] = Preliminary in vivo evidence, topical PS hydrogel, PTPN (Example 6)
[7] = system: paclitaxel-induced central sensitization in C57/BL/6J mice; details: day 14
Experimental: Regarding the treatment with lidocaine: 5% lidocaine cream (a positive control) was applied once to both hind paws of the mice 30 minutes before measurement of PWT.
Briefly, for mechanical allodynia, pain threshold responses were measured using the well-established method of von Frey filaments in line with that performed in the earlier Examples. The PWT test was performed on day-8 (before the first dose of paclitaxel), the day of starting treatment (day 0, at which central sensitization was fully established) and day 14 (treatment continued until day 15). The mechanical threshold, expressed as g, indicates the force of the von Frey filament to which the animal reacted.

[8] = system: NTG-induced chronic migraine in mice; test: PWT (von Frey), NTG-induced chronic migraine model, oral (Example 16)
Experimental: In particular, mice receive sublingual NTG 0.4 mg in the form of a finely crushed 0.4 mg NTG tablet (Greenstone Brand) every two days, receiving a total of five doses. For control mice, an NTG placebo (Practi-Nitroglycerin Sublingual 0.4 mg Simulated Medication tablet) was administered in the same way.
Group 1: placebo NTG (i.e, no NTG treatment, n=8) • 2. Group 2: NTG (n=8) • 3. Group 3: NTG+vehicle (n=8) • 4. […] Group 5: NTG+sulindac (n=8)
Mechanical allodynia was determined using von Frey filaments in line with that performed in the earlier Examples. The PWT test was performed prior to NTG (or placebo NTG) administration to determine baseline values, as indicated. […] The mechanical threshold, expressed as g, indicates the force of the von Frey filament to which the animal reacted.

[9] = system: NTG-induced migraine in C57BL/6J mice; test: PWT (von Frey), NTG-induced migraine mouse model, topical (Example 13)
Experimental: Specifically, instead of the intraperitoneal injection of NTG, a finely crushed 0.4 mg NTG tablet (Greenstone Brand) was administered sublingually. As a control, a Practi-Nitroglycerin Sublingual 0.4 mg Simulated Medication tablet was used.
For determining mechanical allodynia, pain threshold responses were measured using the well-established method of von Frey filaments in line with that performed in the earlier Examples.
The PWT test, assessing mechanical allodynia, was performed 30 minutes after treatment. The mechanical threshold, expressed as g, indicates the force of the von Frey filament to which the animal reacted.

Which results are given for CCOP(=O)(OCC)OCCCCOC(=O)CC1=C(C)/C(=C/c2ccc([S+](C)[O-])cc2)c2ccc(F)cc21 (stereo not drawn) [PS, phosphosulindac]?
PWT, gm Mean ± SEM [1]: 22.5 ± 2.20 gm; PWT, g Mean ± SEM ([2]; Post-inoculation, day 5 (before treatment)): 0.53 ± 0.06 g; PWT, g Mean ± SEM ([2]; Post-treatment, PS 5% gel on both hind paws three times a day for three days): 0.93 ± 0.06 g; PWT, g Mean ± SEM ([2]; Pre-inoculation): 1.27 ± 0.19 g; AUC(0-t) ([3]; DRG (dorsal root ganglia)): 4.5 µM·h; Cmax ([3]; DRG (dorsal root ganglia)): 300 ± 100 nM; half-life ([3]; SN (sciatic nerve)): 57.4 h; AUC(0-t) ([3]; SN (sciatic nerve)): 12 µM·h; Cmax ([3]; SN (sciatic nerve)): 900 ± 100 nM; half-life ([3]; leg muscle): 20.6 h; AUC(0-t) ([3]; leg muscle): 172 µM·h; Cmax ([3]; leg muscle): 35000 ± 3600 nM; half-life ([3]; paw muscle): 11.4 h; AUC(0-t) ([3]; paw muscle): 411 µM·h; Cmax ([3]; paw muscle): 102000 ± 4600 nM; half-life ([3]; paw skin): 16.1 h; AUC(0-t) ([3]; paw skin): 1610 µM·h; Cmax ([3]; paw skin): 195000 ± 5300 nM; detection in the systemic circulation [3]: no PS was detected; Distal half of sciatic nerve, mean ± SEM [4]: 17.0 ± 5.1 µM; Proximal half of sciatic nerve, μM, mean ± SEM [4]: 0.9 ± 0.3 µM; concentration at 30 min ([4]; read-out: Distal half of sciatic nerve, mean ± SEM): 17 ± 5.1 µM; concentration at 30 min ([4]; read-out: Proximal half of sciatic nerve, μM, mean ± SEM): 0.9 ± 0.3 µM; Cmax ([5]; conjunctiva): 5800 nM; half-life ([5]; conjunctiva): 5.7 h; AUC(0-t) ([5]; conjunctiva): 58.6 ± 0.9 µM·h; Cmax ([5]; cornea): 1800 nM; half-life ([5]; cornea): 23 h; AUC(0-t) ([5]; cornea): 6.4 ± 0.4 µM·h; Cmax ([5]; eyelid): 14200 nM; half-life ([5]; eyelid): 14.4 h; AUC(0-t) ([5]; eyelid): 45.2 ± 0.5 µM·h; concentration at 0.5 h ([5]; AH (aqueous humor)): 0 nM; concentration at 1 h ([5]; AH (aqueous humor)): 0 nM; concentration at 2 h ([5]; AH (aqueous humor)): 0 nM; concentration at 4 h ([5]; AH (aqueous humor)): 0 nM; concentration at 8 h ([5]; AH (aqueous humor)): 0 nM; concentration at 24 h ([5]; AH (aqueous humor)): 0 nM; concentration at 0.5 h ([5]; conjunctiva): 1300 ± 100 nM; concentration at 1 h ([5]; conjunctiva): 1800 ± 300 nM; concentration at 2 h ([5]; conjunctiva): 400 ± 100 nM; concentration at 4 h ([5]; conjunctiva): 6100 ± 3300 nM; concentration at 8 h ([5]; conjunctiva): 3400 ± 1400 nM; concentration at 24 h ([5]; conjunctiva): 500 ± 400 nM; concentration at 0.5 h ([5]; cornea): 1800 ± 900 nM; concentration at 1 h ([5]; cornea): 1300 ± 200 nM; concentration at 2 h ([5]; cornea): 1400 ± 100 nM; concentration at 4 h ([5]; cornea): 500 ± 100 nM; concentration at 8 h ([5]; cornea): 1100 ± 600 nM; concentration at 24 h ([5]; cornea): 0 nM; concentration at 0.5 h ([5]; eyelid): 8300 ± 2200 nM; concentration at 1 h ([5]; eyelid): 14200 ± 5300 nM; concentration at 2 h ([5]; eyelid): 2000 ± 500 nM; concentration at 4 h ([5]; eyelid): 3500 ± 1900 nM; concentration at 8 h ([5]; eyelid): 200 ± 200 nM; concentration at 24 h ([5]; eyelid): 1800 ± 1300 nM; concentration at 0.5 h ([5]; vitreous): 0 nM; concentration at 1 h ([5]; vitreous): 0 nM; concentration at 2 h ([5]; vitreous): 0 nM; concentration at 4 h ([5]; vitreous): 0 nM; concentration at 8 h ([5]; vitreous): 0 nM; concentration at 24 h ([5]; vitreous): 0 nM; analgesic effect on neuropathic pain associated with PTPN [6]: striking analgesic effect; PWT, g Mean ± SEM ([7]; PS 1.2% (equimolar to sulindac 0.7%) 3 times a day): 0.98 ± 0.06 g; PWT, g Mean ± SEM ([7]; PS hydrogel 5% or 0.7% sulindac 3 times a day, 5% lidocaine cream once 30 min before, pregabalin 10 mg/kg orally once 1 h before): 1.24 ± 0.07 g; PWT, g Mean ± SEM ([8]; Baseline, prior to NTG administration): 2.28 ± 0.34 g; PWT, g Mean ± SEM ([8]; Day 11, orally once a day for 11 days concurrent with NTG, PS 50 mg/kg, sulindac 33 mg/kg): 1.18 ± 0.10 g; PWT Post-treatment Mean ± SEM ([9]; 30 min after treatment, PS 8% gel or sulindac 5.3% (in DMSO) on both hind paws 30 min after NTG): 1.00 ± 0.12 g; PWT Baseline Mean ± SEM ([9]; baseline of the group, before NTG and treatment): 1.72 ± 0.10 g
